{"source": "patent US9193995B2", "about": "“Compositions for detecting human interferon-alpha subtypes and methods of use” (UNITED STATES DEPARTMENT OF HEALTH AND HUMAN SERVICES, priority 2008, dated 2015)", "assay_in_all_cases": "IFN subtype expression in response to TLR ligands (RT-PCR)", "format_in_all_cases": "cell-based, Human", "key": {"myeloid DC (mDC)": {"tested_on": "myeloid DC (mDC)", "conditions": "10 uM Imiquimod, 6.5 ug/ml CpG A, 1, 4 or 24 hours, varied with donor, FIG. 9E", "excerpt": "(§1) To test whether expression of IFN subtypes varied among different cell types, the primers of the invention were used to determine expression patterns of IFN-alpha, IFN-lambda, IFN-beta and IFN-gamma in response to ligands of TLR 3 (poly I:C), 4 (LPS), 7 (imiquimod) and 9 (CpG). LPS (E. coli O111:B4), imiquimod, and poly I:C were purchased from EMD Chemicals (Gibbstown, N.J.). CpG types D35, K, and C, and control D35 GpC oligonucleotides were synthesized by the Food and Drug Administration Center for Biologics Evaluation and Research Facility for Biotechnology Resources. For both the D35 CpG and control GpC, the two bases at the 5′ and 3′ ends had nuclease-resistant phosphorothioate linkages.\n(§2) Human peripheral blood monocytes, myeloid DC (mDC), plasmacytoid DC (pDC), and B cells were isolated. Elutriated monocytes and lymphocytes were obtained from the NIH Clinical Center Department of Transfusion Medicine (Bethesda, Md.) and the preparation was subjected to Ficoll-Hypaque (Sigma-Aldrich, St. Louis, Mo.) density centrifugation. Monocytes, mDC and pDC were purified with magnetic beads specific for CD14, CD1c, and CD303, respectively using an AutoMACS magnetic cell sorter (Miltenyi Biotec, Auburn, Calif.). […]"}, "plasmacytoid DC (pDC)": {"tested_on": "plasmacytoid DC (pDC)", "conditions": "10 uM Imiquimod, 6.5 ug/ml CpG A, 1, 4 or 24 hours, much higher levels than mDC", "excerpt": "as §1, §2"}, "monocytes, MDM and MDDC": {"tested_on": "monocytes, MDM and MDDC", "conditions": "25 ug/ml Poly I:C, 10 ng/ml LPS, 1, 4 or 24 hours, FIG. 9A-C", "excerpt": "as §1, §2"}}, "data": [{"molecule": "CC(C)Cn1cnc2c(N)nc3ccccc3c21", "note": "[imiquimod]", "values": [{"measurement": "IFN expression in response to TLR ligand", "setting": "myeloid DC (mDC)", "result": "expressed most IFN-a subtypes"}, {"measurement": "IFN expression in response to TLR ligand", "setting": "plasmacytoid DC (pDC)", "result": "expressed most IFN"}]}, {"molecule": "poly I:C", "values": [{"measurement": "IFN expression in response to TLR ligand", "setting": "monocytes, MDM and MDDC", "result": "expressed high levels of IFN-b, IFN-g, IFN-11, and to a lesser extent, IFN-l2 and IFN-a1"}]}]}
